Legend:
Assay in all cases: KAM-matrix competition in K562 lysate;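 as to 0.001 uM KAM: median log10 fold change of treatment over DMSO control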;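 as to 0.01 uM KAM: median log10 fold change of treatment over DMSO control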;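 as to 0.1 uM KAM: median log10 fold change of treatment over DMSO control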;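 as to 1 uM KAM: median log10 fold change of treatment over DMSO control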;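 as to 10 uM KAM: median log10 fold change of treatment over DMSO control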
Assay type in all cases: binding
ARAF = target: T1, ARAF (Homo sapiens, UniProt P10398);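 as to 0.001 uM KAM: median log10 fold change of treatment over DMSO control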;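 as to 0.01 uM KAM: median log10 fold change of treatment over DMSO control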;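 as to 0.1 uM KAM: median log10 fold change of treatment over DMSO control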;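 as to 1 uM KAM: median log10 fold change of treatment over DMSO control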;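 as to 10 uM KAM: median log10 fold change of treatment over DMSO control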
T1 construct: endogenous in cells; host or cells: K562
T1 sequence (P10398 1-606): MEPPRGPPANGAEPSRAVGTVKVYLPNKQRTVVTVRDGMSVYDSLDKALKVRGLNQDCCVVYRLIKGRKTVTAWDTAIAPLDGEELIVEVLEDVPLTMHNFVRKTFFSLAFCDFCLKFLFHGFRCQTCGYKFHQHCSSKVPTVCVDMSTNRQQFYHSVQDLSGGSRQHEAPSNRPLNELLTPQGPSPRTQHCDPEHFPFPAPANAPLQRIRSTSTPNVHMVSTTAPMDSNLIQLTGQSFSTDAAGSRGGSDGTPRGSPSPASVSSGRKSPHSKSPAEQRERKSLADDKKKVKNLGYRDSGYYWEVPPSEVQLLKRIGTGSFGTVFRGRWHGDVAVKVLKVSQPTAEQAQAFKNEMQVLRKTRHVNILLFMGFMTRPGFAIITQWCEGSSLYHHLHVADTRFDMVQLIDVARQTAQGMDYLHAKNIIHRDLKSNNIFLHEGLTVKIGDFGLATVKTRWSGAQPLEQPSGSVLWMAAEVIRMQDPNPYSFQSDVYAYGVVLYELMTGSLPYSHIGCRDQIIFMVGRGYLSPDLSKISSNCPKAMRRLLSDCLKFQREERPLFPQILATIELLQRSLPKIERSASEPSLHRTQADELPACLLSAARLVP
Method: (§1) Supplement 12953_2017_125_MOESM1_ESM.zip/MS_Supp Info.xlsx, sheet "KAM" | column: 10 uM KAM; 1 uM KAM; 0.1 uM KAM; 0.01 uM KAM; 0.001 uM KAM; RB50

FGFR3 = target: T2, FGFR3 (Homo sapiens, UniProt P22607)
T2 construct: endogenous in cells; host or cells: K562
T2 sequence (P22607 23-806): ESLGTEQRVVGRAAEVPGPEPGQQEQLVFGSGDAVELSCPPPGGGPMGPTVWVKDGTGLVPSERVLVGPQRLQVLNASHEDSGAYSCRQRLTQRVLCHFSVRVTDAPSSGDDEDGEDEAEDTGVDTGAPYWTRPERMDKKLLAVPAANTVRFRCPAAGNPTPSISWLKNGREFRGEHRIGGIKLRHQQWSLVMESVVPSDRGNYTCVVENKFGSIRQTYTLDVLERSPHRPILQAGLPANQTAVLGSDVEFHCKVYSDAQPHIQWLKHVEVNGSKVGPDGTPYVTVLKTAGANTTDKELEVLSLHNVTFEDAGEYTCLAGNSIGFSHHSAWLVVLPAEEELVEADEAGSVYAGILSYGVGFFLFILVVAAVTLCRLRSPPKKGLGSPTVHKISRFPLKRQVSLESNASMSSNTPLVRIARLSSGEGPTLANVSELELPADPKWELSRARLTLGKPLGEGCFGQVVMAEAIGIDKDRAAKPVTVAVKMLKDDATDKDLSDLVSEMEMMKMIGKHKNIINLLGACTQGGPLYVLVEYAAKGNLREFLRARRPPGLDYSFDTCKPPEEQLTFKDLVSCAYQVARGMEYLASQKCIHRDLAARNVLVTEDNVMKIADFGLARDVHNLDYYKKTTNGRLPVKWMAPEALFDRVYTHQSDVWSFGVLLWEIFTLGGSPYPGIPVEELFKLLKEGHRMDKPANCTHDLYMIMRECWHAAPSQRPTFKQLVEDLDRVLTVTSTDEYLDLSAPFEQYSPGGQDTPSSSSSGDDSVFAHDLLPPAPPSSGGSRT
Method: as §1

MAP4K2 = target: T3, MAP4K2 (Homo sapiens, UniProt Q12851)
T3 construct: endogenous in cells; host or cells: K562
T3 sequence (Q12851 1-820): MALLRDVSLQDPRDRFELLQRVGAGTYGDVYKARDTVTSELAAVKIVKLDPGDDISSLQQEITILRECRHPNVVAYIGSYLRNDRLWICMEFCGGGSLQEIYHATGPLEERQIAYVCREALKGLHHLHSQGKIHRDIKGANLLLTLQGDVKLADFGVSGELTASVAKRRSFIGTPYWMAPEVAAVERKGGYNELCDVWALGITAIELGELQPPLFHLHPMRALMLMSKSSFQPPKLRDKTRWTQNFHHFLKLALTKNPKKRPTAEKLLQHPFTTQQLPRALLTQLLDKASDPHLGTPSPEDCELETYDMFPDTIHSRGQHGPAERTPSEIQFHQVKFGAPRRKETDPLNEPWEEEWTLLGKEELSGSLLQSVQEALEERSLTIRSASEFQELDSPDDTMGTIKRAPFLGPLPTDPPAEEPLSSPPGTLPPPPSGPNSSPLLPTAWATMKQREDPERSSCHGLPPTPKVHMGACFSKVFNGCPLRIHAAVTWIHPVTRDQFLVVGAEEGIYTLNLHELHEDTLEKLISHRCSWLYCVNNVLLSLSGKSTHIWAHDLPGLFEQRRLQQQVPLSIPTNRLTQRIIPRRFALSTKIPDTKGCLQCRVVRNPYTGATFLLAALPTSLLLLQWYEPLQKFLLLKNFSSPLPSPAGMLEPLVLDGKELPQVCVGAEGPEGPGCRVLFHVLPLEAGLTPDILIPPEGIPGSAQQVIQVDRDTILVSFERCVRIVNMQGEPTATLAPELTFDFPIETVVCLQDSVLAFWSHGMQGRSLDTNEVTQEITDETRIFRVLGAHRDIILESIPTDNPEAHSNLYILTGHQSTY
Method: as §1

OBSCN = target: T4, OBSCN (Homo sapiens, UniProt Q5VST9);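 as to 0.001 uM KAM: median log10 fold change of treatment over DMSO control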;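 as to 0.01 uM KAM: median log10 fold change of treatment over DMSO control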;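 as to 0.1 uM KAM: median log10 fold change of treatment over DMSO control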;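 as to 1 uM KAM: median log10 fold change of treatment over DMSO control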;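 as to 10 uM KAM: median log10 fold change of treatment over DMSO control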
T4 construct: endogenous in cells; host or cells: K562
Method: as §1

PAK4 = target: T5, PAK4 (Homo sapiens, UniProt O96013)
T5 construct: endogenous in cells; host or cells: K562
T5 sequence (O96013 whole entry): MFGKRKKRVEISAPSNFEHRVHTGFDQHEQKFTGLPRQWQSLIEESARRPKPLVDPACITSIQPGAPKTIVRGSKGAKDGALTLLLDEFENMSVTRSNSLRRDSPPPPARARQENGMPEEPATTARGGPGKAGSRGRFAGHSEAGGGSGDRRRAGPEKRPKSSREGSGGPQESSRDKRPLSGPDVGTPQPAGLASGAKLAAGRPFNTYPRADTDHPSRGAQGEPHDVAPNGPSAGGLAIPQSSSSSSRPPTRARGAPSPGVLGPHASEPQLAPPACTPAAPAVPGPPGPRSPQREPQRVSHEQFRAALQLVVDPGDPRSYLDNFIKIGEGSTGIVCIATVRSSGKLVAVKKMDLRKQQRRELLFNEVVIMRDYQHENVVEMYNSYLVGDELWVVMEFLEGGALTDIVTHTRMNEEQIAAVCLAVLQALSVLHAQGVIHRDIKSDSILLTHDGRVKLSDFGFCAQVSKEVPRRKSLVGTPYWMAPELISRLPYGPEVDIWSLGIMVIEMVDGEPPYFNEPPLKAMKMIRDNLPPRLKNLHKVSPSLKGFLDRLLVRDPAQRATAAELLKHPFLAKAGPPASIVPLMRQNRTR
Method: as §1

PRKACA = target: T6, PRKACA (Homo sapiens, UniProt P17612);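 as to 0.001 uM KAM: median log10 fold change of treatment over DMSO control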;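 as to 0.01 uM KAM: median log10 fold change of treatment over DMSO control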;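 as to 0.1 uM KAM: median log10 fold change of treatment over DMSO control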;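 as to 1 uM KAM: median log10 fold change of treatment over DMSO control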;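 as to 10 uM KAM: median log10 fold change of treatment over DMSO control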
T6 construct: endogenous in cells; host or cells: K562 lysate
Method: as §1

TGFBR2 = target: T7, TGFBR2 (Homo sapiens, UniProt P37173)
T7 construct: endogenous in cells; host or cells: K562
T7 sequence (P37173 23-567): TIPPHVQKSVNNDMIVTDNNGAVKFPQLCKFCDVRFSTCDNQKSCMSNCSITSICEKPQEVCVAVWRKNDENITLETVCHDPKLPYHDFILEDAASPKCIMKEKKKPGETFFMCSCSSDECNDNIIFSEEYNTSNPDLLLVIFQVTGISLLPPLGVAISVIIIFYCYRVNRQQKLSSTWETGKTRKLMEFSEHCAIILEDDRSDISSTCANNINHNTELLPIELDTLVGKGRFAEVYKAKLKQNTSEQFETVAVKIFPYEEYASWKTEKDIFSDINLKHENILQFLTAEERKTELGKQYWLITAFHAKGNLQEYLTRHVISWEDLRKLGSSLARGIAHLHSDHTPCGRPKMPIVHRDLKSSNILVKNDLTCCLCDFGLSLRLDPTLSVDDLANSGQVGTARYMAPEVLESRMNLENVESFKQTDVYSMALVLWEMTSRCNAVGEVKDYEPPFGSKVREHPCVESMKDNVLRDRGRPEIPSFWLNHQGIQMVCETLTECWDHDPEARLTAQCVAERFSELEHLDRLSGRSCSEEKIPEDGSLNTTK
Method: as §1

[1] = KAM 0.001-10 uM, read-out: RB50 (the source's name)
[2] = read-out: RB50 (the source's name)

Q: Which results are given for `N#CCc1ccc(Nc2nc(NCCCN)cc(Nc3cc(C4CC4)[nH]n3)n2)cc1` [KAM]?
A: IC50 (ARAF; [1]): > 10000 nM; 0.001 uM KAM (ARAF; relative to 0 uM KAM = 0): -0.04442; 0.01 uM KAM (ARAF; relative to 0 uM KAM = 0): -0.008723; 0.1 uM KAM (ARAF; relative to 0 uM KAM = 0): -0.09412; 1 uM KAM (ARAF; relative to 0 uM KAM = 0): -0.1283; 10 uM KAM (ARAF; relative to 0 uM KAM = 0): -0.1374; median Log10 fold change (FGFR3; 0.001 uM KAM): 0.01443; median Log10 fold change (FGFR3; 0.01 uM KAM): 0.001015; median Log10 fold change (FGFR3; 0.1 uM KAM): -0.1738; median Log10 fold change (FGFR3; 1 uM KAM): -0.319; median Log10 fold change (FGFR3; 10 uM KAM): -0.3424; IC50 (FGFR3; [2]): 1160 nM; median Log10 fold change (MAP4K2; 0.001 uM KAM): -0.01936; median Log10 fold change (MAP4K2; 0.01 uM KAM): -0.0303; median Log10 fold change (MAP4K2; 0.1 uM KAM): -0.2006; median Log10 fold change (MAP4K2; 1 uM KAM): -0.2485; median Log10 fold change (MAP4K2; 10 uM KAM): -0.341; IC50 (MAP4K2; [2]): 2230 nM; IC50 (OBSCN; [1]): > 10000 nM; 0.001 uM KAM (OBSCN; relative to 0 uM KAM = 0): -0.03363; 0.01 uM KAM (OBSCN; relative to 0 uM KAM = 0): 0.02355; 0.1 uM KAM (OBSCN; relative to 0 uM KAM = 0): -0.066; 1 uM KAM (OBSCN; relative to 0 uM KAM = 0): -0.08935; 10 uM KAM (OBSCN; relative to 0 uM KAM = 0): -0.04979; median Log10 fold change (PAK4; 0.001 uM KAM): -0.02305; median Log10 fold change (PAK4; 0.01 uM KAM): -0.006782; median Log10 fold change (PAK4; 0.1 uM KAM): -0.1812; median Log10 fold change (PAK4; 1 uM KAM): -0.403; median Log10 fold change (PAK4; 10 uM KAM): -0.4884; IC50 (PAK4; [2]): 527 nM; IC50 (PRKACA; [1]): > 10000 nM; 0.001 uM KAM (PRKACA; relative to 0 uM KAM = 0): 0.01517; 0.01 uM KAM (PRKACA; relative to 0 uM KAM = 0): -0.007672; 0.1 uM KAM (PRKACA; relative to 0 uM KAM = 0): 0.08573; 1 uM KAM (PRKACA; relative to 0 uM KAM = 0): 0.0122; 10 uM KAM (PRKACA; relative to 0 uM KAM = 0): 0.04616; median Log10 fold change (TGFBR2; 0.001 uM KAM): 0.03003; median Log10 fold change (TGFBR2; 0.01 uM KAM): -0.09645; median Log10 fold change (TGFBR2; 0.1 uM KAM): -0.3569; median Log10 fold change (TGFBR2; 1 uM KAM): -0.3895; median Log10 fold change (TGFBR2; 10 uM KAM): -0.4032; IC50 (TGFBR2; [2]): 117 nM

From PMC5513037, “Examining the influence of specificity ligands and ATP-competitive ligands on the overall effectiveness of bivalent kinase inhibitors” (Proteome Science, 2017)
